Source: EP2671872A1, “Fluorinated pyridylacetylene derivatives as tracers” (Eidgenössische Technische Hochschule Zürich (ETH), priority 2012, dated 2013)
Like-named read-outs stand apart in the source and are kept apart here. One block for each molecule: values may come before it.

Assays:
[1] = target: T1, mGluR5 (Rattus norvegicus, UniProt P31424); experiment: PET scan of rat brain, kinetic behavior (ratio of specifically bound to free ligand); type: in vivo, Wistar rat; parameters: from tissue; host or cells: brain of living male Wistar rat (in vivo PET); details: tail vein injection
Method: A male Wistar rat (423 g) was injected 23.1 MBq [^18F]PSS232 into a tail vein and PET was acquired from 0 to 90 min post injection. […] Only brain is shown. SUV denotes standardized uptake value.
PET scans analogous to those of Example 3 were recorded after administration of [^18F]PSS232 (Fig. 7, red curves, circles and diamonds), [^11C]ABP688 (Fig. 7, black curves, squares and triangles) and [^18F]FDEGPECO (Fig. 7, blue curves, crosses and crossed bars).
Fig. 9 illustrates the favorable kinetic behavior of PSS232. The ratio of specifically bound PSS232 in caudate putamen (striatum) to free ligand PSS232 (radioactivity in cerebellum is considered to originate from free ligand) becomes constant at about 40 min after injection, thus allowing the estimation of the binding potential (BP). This is an advantage over [^11C]ABP688 where the equilibrium is not reached within 60 min and the short physical half-life of ^11C (20 min) limits the scan duration.

[2] = humans; background, relative to rodents and monkeys; cited from earlier work
[3] = monkeys; background; cited from earlier work
[4] = rodents; background; cited from earlier work
[5] = target: T2, rat mGluR5 (Rattus norvegicus, UniProt P31424); experiment: displacement assay with rat brain membranes and [^3H]ABP688; type: binding; details: radioligand of the displacement assay, used at 1.6 nM, rat brain membranes
T2 construct: displacement assay with rat brain membranes and 1.6 nM [^3H]ABP688; from tissue; host or cells: rat brain membranes

[6] = defluorination by human S9 fraction of liver homogenate; type: in vitro ADME
[7] = defluorination by rat liver microsomes; type: in vitro ADME
[8] = defluorination in vivo in rats
[9] = defluorination by human liver microsomes; type: in vitro ADME
[10] = target: T1, mGluR5; experiment: in vitro autoradiography of rat brain slices; type: binding; parameters: from tissue; host or cells: brain of living animal (in vivo PET, tail vein injection); details: about 1 nM tracer, 20 µm slices; compared with 100 nM ABP688 (mGluR5 ligand) or JNJ16259685 (mGluR1 ligand)
Method: In Fig. 4 two rat brain slices (20 µm) each were incubated with about 1 nM [^18F]PSS232 in the absence of any unlabeled compound (top) or with 100 nM of the specific mGluR5 ligand ABP688 (middle) or of mGluR1 ligand JNJ16259685 (bottom). […] It should be noted that mGluR1 is the receptor with most similar amino acid sequence to mGluR5.

[11] = target: T1, mGluR5; experiment: ex vivo brain distribution with MTEP blockade (gamma counter); type: in vivo, Rats; parameters: from tissue; host or cells: rat brain regions after in vivo injection; details: 45 min after injection
Method: Rats were pre-injected (tail vein) with 10 mg/kg MTEP (a specific mGluR5 antagonist) before [^18F]PSS232 injection (= blockade, see green, right bars in Fig. 10) or they were pre-injected with vehicle (= baseline, see blue, left, bars in Fig. 10).

[12] = target: T1, mGluR5; experiment: ex vivo brain distribution after MMPEP pre-injection at various doses (receptor occupancy); details: estimated from fit of MMPEP dose curve; 45 min after injection
[13] = target: T1, mGluR5; details: background, literature; cited from earlier work
[14] = rats; background, literature; cited from earlier work

T1 sequence (P31424 21-1203): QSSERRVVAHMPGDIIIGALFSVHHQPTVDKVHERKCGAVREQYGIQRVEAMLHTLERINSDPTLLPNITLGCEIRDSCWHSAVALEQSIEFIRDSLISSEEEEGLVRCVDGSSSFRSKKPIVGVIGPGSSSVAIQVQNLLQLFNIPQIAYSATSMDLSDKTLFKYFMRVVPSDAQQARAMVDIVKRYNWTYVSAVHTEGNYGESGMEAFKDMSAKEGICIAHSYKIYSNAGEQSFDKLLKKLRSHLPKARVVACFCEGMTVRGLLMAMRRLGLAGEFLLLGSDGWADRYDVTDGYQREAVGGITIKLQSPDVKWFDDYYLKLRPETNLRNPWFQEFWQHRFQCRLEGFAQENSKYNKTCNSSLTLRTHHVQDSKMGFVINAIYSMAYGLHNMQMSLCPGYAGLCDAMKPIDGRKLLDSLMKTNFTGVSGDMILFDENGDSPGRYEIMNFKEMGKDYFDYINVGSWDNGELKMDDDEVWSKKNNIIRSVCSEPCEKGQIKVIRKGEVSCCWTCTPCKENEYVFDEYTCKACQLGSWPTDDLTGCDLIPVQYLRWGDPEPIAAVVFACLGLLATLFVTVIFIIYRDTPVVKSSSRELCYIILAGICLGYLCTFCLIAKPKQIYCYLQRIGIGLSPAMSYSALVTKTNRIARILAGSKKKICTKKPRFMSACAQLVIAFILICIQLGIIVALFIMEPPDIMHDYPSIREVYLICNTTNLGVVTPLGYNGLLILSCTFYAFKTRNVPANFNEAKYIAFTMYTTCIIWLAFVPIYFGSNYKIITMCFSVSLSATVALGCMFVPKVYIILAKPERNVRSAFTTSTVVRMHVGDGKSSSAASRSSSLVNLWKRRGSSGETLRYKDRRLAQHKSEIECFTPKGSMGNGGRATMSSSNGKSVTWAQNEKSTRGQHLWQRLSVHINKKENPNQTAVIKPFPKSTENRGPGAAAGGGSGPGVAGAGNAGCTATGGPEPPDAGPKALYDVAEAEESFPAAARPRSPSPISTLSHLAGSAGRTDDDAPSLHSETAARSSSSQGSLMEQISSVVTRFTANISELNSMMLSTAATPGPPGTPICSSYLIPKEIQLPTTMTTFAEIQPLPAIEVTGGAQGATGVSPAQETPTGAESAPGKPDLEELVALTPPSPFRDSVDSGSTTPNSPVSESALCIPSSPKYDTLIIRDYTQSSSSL
T2 sequence (P31424 21-1203): as above

Molecule: Cc1cccc(C#CC2=C/C(=N/O[11CH3])CCC2)n1 [[^11C]ABP688, (E)-3-((6-methylpyridin-2-yl)ethynyl)cyclohex-e-enone-O-^11C-methyl oxime]
time after injection at which ratio of specifically bound (caudate putamen/striatum) to free ligand (cerebellum) becomes constant (equilibrium) [1]: > 60 min

Molecule: N#Cc1cc(F)cc(C#Cc2csc(C[18F])n2)c1 [[^18F]-SP203]
defluorination [2]: to a lesser extent
defluorination [3]: significant defluorination
defluorination [4]: significant defluorination

Molecule: [18F]CCOCCO/N=C1/C=C(C#Cc2ccccn2)CCC1 [[^18F]FDEGPECO, (E)-3-(Pyridin-2-ylethynyl)-cyclohex-2-enone-O-2-(2-^18F-fluoroethoxy)ethyl oxime]
mean residence time at the target site [13]: relatively short

Molecule: MTEP
radioactivity of brain regions after MTEP pre-injection ([11]; 10 mg/kg MTEP tail vein before [^18F]PSS232): all brain regions have similar radioactivity as in cerebellum

Molecule: [18F]CCCOCCO/N=C1/C=C(C#Cc2ccccn2)CCC1 [[^18F]PSS223, (E)-3-(pyridin-2-ylethynyl)cyclohex-2-enone O-(2-(3-^18F-fluoropropoxy)ethyl) oxime]
defluorination in vivo [14]: rapid defluorination

Results, then the molecule that gave them:

Kd [5]: 1.7 nM
Molecule: CON=C1C=C(C#Cc2cccc(C)n2)CCC1 [[^3H]ABP688]

defluorination [6]: not significantly defluorinated
time after injection at which ratio of specifically bound (caudate putamen/striatum) to free ligand (cerebellum) becomes constant (equilibrium) [1]: about 40 min
defluorination [7]: not significantly defluorinated
defluorination in vivo [8]: does not show significant defluorination
defluorination [9]: not significantly defluorinated
Molecule: FCCOCCCO/N=C1/C=C(C#Cc2ccccn2)CCC1 [PSS232, (E)-3-(pyridin-2-ylethynyl)-cyclohex-2-enone O-(3-(2-fluoroethoxy)propyl) oxime]

accumulation in mGluR5-rich domains of rat brain slices [10]: high, mGluR5-selective accumulation
average specific binding in striatum ([11]; baseline (vehicle) vs blockade with 10 mg/kg MTEP): 86.6%
maximal specific binding in striatum [12]: 78.5%
Molecule: FCCOCCCO/N=C1/C=C(C#Cc2ccccn2)CCC1 [[^18F]PSS232, (E)-3-(pyridin-2-ylethynyl)-cyclohex-2-enone O-(3-(2-fluoroethoxy)propyl) oxime]
